Tests used:
[1] = test system: HT-29; experiment: Antiproliferative activity against human HT-29 cells after 3 days by MTT assay; assay type: functional, cell-based; conditions: HT-29, 72 h
[2] = test system: HeLa; experiment: Antiproliferative activity against human HeLa cells after 3 days by MTT assay; assay type: functional, cell-based; conditions: 72 h
[3] = test system: A549; experiment: Antiproliferative activity against human A549 cells after 3 days by MTT assay; assay type: functional, cell-based; conditions: A549, 72 h
[4] = test system: HT-29; experiment: Cell cycle arrest in human HT-29 cells assessed as accumulation at sub-G1 phase at 0.05 uM after 24 hrs by flow cytometry; assay type: functional
[5] = test system: HT-29; experiment: Cell cycle arrest in human HT-29 cells assessed as accumulation at sub-G1 phase at 0.1 uM after 24 hrs by flow cytometry; assay type: functional
[6] = test system: HT-29; experiment: Cell cycle arrest in human HT-29 cells assessed as accumulation at sub-G1 phase at 0.25 uM after 24 hrs by flow cytometry; assay type: functional
[7] = test system: HT-29; experiment: Cell cycle arrest in human HT-29 cells assessed as accumulation at sub-G1 phase at 0.5 uM after 24 hrs by flow cytometry; assay type: functional
[8] = test system: HT-29; experiment: Cell cycle arrest in human HT-29 cells assessed as accumulation at sub-G1 phase at 1 uM after 24 hrs by flow cytometry; assay type: functional
[9] = test system: HT-29; experiment: Cell cycle arrest in human HT-29 cells assessed as accumulation at sub-G1 phase at 2.5 uM after 24 hrs by flow cytometry; assay type: functional
[10] = test system: HT-29; experiment: Cell cycle arrest in human HT-29 cells assessed as accumulation at sub-G1 phase at 0.05 uM after 48 hrs by flow cytometry; assay type: functional
[11] = test system: HT-29; experiment: Cell cycle arrest in human HT-29 cells assessed as accumulation at sub-G1 phase at 0.1 uM after 48 hrs by flow cytometry; assay type: functional
[12] = test system: HT-29; experiment: Cell cycle arrest in human HT-29 cells assessed as accumulation at sub-G1 phase at 0.25 uM after 48 hrs by flow cytometry; assay type: functional
[13] = test system: HT-29; experiment: Cell cycle arrest in human HT-29 cells assessed as accumulation at sub-G1 phase at 0.5 uM after 48 hrs by flow cytometry; assay type: functional
[14] = test system: HT-29; experiment: Cell cycle arrest in human HT-29 cells assessed as accumulation at sub-G1 phase at 1 uM after 48 hrs by flow cytometry; assay type: functional
[15] = test system: HT-29; experiment: Cell cycle arrest in human HT-29 cells assessed as accumulation at sub-G1 phase at 2.5 uM after 48 hrs by flow cytometry; assay type: functional

`Nc1ccc2cc3ccccc3nc2c1CO` showed an IC50 [1] of 34 nM, an IC50 [2] of 70 nM and an IC50 [3] of 60 nM. The Activity [4] was 3.2%, the Activity [5] was 0.1% and the Activity [6] was 0.7%. It also gave an Activity [7] of 9.7%, an Activity [8] of 5.2% and an Activity [9] of 13.7%. For the same compound, the Activity [10] was 0.7%, the Activity [11] was 4.7% and the Activity [12] was 18.7%. The Activity [13] was 26.3%, the Activity [14] was 31.7% and the Activity [15] was 23.4%.

`Nc1ccc2cc3ccc(I)cc3nc2c1CO` showed an IC50 [1] of 70 nM, an IC50 [2] of 70 nM and an IC50 [3] of 130 nM. The Activity [4] was 3.9%, the Activity [5] was 1.4% and the Activity [6] was 6.3%. The Activity [7] was 1.7%, the Activity [8] was 8.7% and the Activity [9] was 8.9%. For the same compound, the Activity [10] was 2.14%, the Activity [11] was 22.6% and the Activity [12] was 23.7%. For the same compound, the Activity [13] was 19.3%, the Activity [14] was 14.8% and the Activity [15] was 12%.

Reference: ChEMBL document CHEMBL1153811, “Unusual cellular uptake of cytotoxic 4-hydroxymethyl-3-aminoacridine” (Eur J Med Chem, 2009)
